Columns and labels:
[1] = molecular target: Sigma non-opioid intracellular receptor 1 (Rattus norvegicus, UniProt Q9R0C9); test: Inhibition of [3H]pentazocine binding to Opioid receptor sigma 1
[2] = Protective index (PI) is the ratio of TD50 in the rotarod test over the ED50 in the anticonvulsant test.; format: functional
[3] = tested on: Rattus norvegicus; test: Tested for the anticonvulsant activity administered 60 min orally before MES induction; format: functional; conditions: po, 1 h
[4] = molecular target: T1, Sodium channel alpha subunits; brain (Types I, II, III) (Rattus norvegicus, UniProt P04775+P04774+P08104); test: Inhibition of [3H]saxitoxin binding to rat brain sodium channel; format: tissue-based
[5] = molecular target: T1, Sodium channel alpha subunits; brain (Types I, II, III); test: Inhibition of [3H]batrachotoxin binding to rat brain sodium channel
[6] = organism: Mus musculus; test: Toxic dose causing 50% treated mice fall from the rotarod was evaluated
[7] = Lethal dose in rats; format: toxicity; conditions: rat, in vivo

Sequence of Sigma non-opioid intracellular receptor 1 (Q9R0C9 whole entry): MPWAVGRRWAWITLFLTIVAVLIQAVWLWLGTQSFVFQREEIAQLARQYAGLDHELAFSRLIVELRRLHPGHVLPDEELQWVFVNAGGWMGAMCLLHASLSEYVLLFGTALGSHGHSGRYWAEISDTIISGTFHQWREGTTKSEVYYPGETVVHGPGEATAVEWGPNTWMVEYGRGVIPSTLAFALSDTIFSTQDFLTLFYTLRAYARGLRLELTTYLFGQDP

Compound	IC50 [1] [µM]	PI [2]	ED50 [3] [mg/kg]	IC50 [4] [µM]	IC50 ([5]; read-out: IC50) [µM]	TD50 [6] [mg/kg]	IC50 [5] [µM]	LD50 [7] [mg/kg]
CS(=O)(=O)O.C[C@H](NCc1ccc(OCc2cccc(F)c2)cc1)C(N)=O [SAFINAMIDE MESYLATE]	0.0197	78.2	8	> 300	8.2	626	–	–
C[C@H](NCc1ccc(OCCCCCc2ccccc2)cc1)C(N)=O	> 10	80.8	12.5	> 300	–	1010	1.4	–
C[C@@H](NCc1ccc(OCc2cccc(F)c2)cc1)C(N)=O	0.28	87.8	7.2	> 300	–	584	8.5	–
Nc1nnc(-c2cccc(Cl)c2Cl)c(N)n1 [LAMOTRIGINE]	> 10	38.2	2.2	> 100	–	84	185.9	–
C[C@@H](NCc1ccc(NCc2cccc(F)c2)cc1)C(N)=O	0.28	160	1.7	> 300	–	272	11.3	–
C[C@H](NCc1ccc(OCCCCc2ccccc2)cc1)C(N)=O	0.55	81	12.4	> 300	–	1000	1.1	–
C[C@H](NCc1ccc(OCCCc2ccccc2)cc1)C(N)=O	0.0193	87.2	6.7	> 300	–	584	13.2	–
CNC(=O)[C@H](CO)NCc1ccc(OCc2cccc(F)c2)cc1	0.588	70.4	13	> 300	–	915	26.3	–
COc1ccc(CN[C@@H](C)C(N)=O)cc1	> 10	–	> 100	> 300	–	–	145.8	–
COc1ccc2c(c1)[C@]13CCCC[C@@H]1[C@H](C2)N(C)CC3 [DEXTROMETHORPHAN]	–	–	12.9	> 100	–	–	1.3	234
CNC(=O)[C@@H](CO)NCc1ccc(OCc2cccc(F)c2)cc1	6.6	92.6	6.4	> 300	–	593	17.9	–
C[C@H](NCc1ccc(NCc2cccc(F)c2)cc1)C(N)=O	0.0344	88.3	6.6	> 300	–	583	13.9	–
C[C@@H](NCc1ccc(OCCCc2ccccc2)cc1)C(N)=O	0.28	102	12.6	> 300	–	1280	7.8	–
C[C@H](NCc1ccc(OCc2ccccc2)cc1)C(=O)O	–	–	> 100	> 300	–	–	150.8	–

From ChEMBL document CHEMBL1132100, “Sodium channel activity and sigma binding of 2-aminopropanamide anticonvulsants” (Bioorg Med Chem Lett, 1999)
